These results are taken from patent US12534457B2, “Heteroaryl derivative compounds, and uses thereof” (Voronoi Inc., priority 2021, dated 2026).

This assay deals with Ba/F3 cells expressing EGFR Del19/C797S (EGFR DC). Nature of the assay: Proliferation inhibitory activity, Ba/F3 cells expressing EGFR Del19/C797S (CellTiter-Glo). Type of assay: cell-based. The method in brief: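 Viability after 72 h of compound exposure was measured by luminescence (CellTiter-Glo) in Ba/F3 lines transduced with mutant EGFR. Final concentrations spanned 0.2 nM–5 μM over 12 threefold steps. Growth relative to untreated control gave GI50 values; each test was run three times.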
(ATP-based viability assays read luminescence as a measure of living cells.)

The mark [1] stands for this setting: Mus musculus, BaF3, 72 hours of compound treatment.

Molecules are shown by their SMILES. Some results are limits rather than exact numbers.

For orientation: GI50 means the concentration giving 50% growth inhibition. Turning to `COc1cc2c(cc1Nc1cc(N3OCC[C@@H]3c3cccc(F)c3F)ncn1)C(=O)N(C)C2` [Example 193, (R)-6-((6-(3-(2,3-difluorophenyl)isoxazolidin-2-yl)pyrimidin-4-yl)amino)-5-methoxy-2-methylisoindolin-1-one], under setting [1], the concentration for 50% growth inhibition (GI50) lay within 50 to 500 nM.

On to `COc1cc(N2CCC3(CC2)CCN(C(C)(C)CF)CC3)c(-c2cnn(C)c2)cc1Nc1cc(N2OCC[C@@H]2c2cccc(F)c2F)ncn1` [Example 195, (R)-6-(3-(2,3-difluorophenyl)isoxazolidin-2-yl)-N-(4-(9-(1-fluoro-2-methylpropan-2-yl)-3,9-diazaspiro[5.5]undecan-3-yl)-2-methoxy-5-(1-methyl-1H-pyrazol-4-yl)phenyl)pyrimidin-4-amine], for which the GI50 under setting [1] is below 50 nM.

Regarding `C=Cc1cc(Nc2cc(N3OCC[C@@H]3c3cccc(F)c3F)ncn2)c(OC)cc1N1CCN(C)CC1` [Example 199, (R)-6-(3-(2,3-difluorophenyl)isoxazolidin-2-yl)-N-(2-methoxy-4-(4-methylpiperazin-1-yl)-5-vinylphenyl)pyrimidin-4-amine], the GI50 under setting [1] is below 50 nM.

Take `C#Cc1cc(Nc2cc(N3OCC[C@@H]3c3cccc(F)c3F)ncn2)c(OC)cc1N1CCN(C)CC1` [Example 200, (R)-6-(3-(2,3-difluorophenyl)isoxazolidin-2-yl)-N-(5-ethynyl-2-methoxy-4-(4-methylpiperazine-1-yl)phenyl)pyrimidin-4-amine]: the GI50 under setting [1] is below 50 nM.

As for `COc1cc(N2CCN(C)CC2)c(-c2cnn(C)c2)nc1Nc1cc(N2OCC[C@@H]2c2cccc(F)c2F)ncn1` [Example 201, (R)-6-(3-(2,3-difluorophenyl)isoxazolidin-2-yl)-N-(3-methoxy-6-(1-methyl-1H-pyrazol-4-yl)-5-(4-methylpiperazin-1-yl)pyridin-2-yl)pyrimidin-4-amine], the GI50 under setting [1] was below 50 nM.

For `COc1nc(N2CCN(C)CC2)c(-c2cnn(C)c2)cc1Nc1cc(N2OCC[C@@H]2c2cccc(F)c2F)ncn1` [Example 202, (R)-6-(3-(2,3-difluorophenyl)isoxazolidin-2-yl)-N-(2-methoxy-5-(1-methyl-1H-pyrazol-4-yl)-6-(4-methylpiperazin-1-yl)pyridin-3-yl)pyrimidin-4-amine], under setting [1], the concentration for 50% growth inhibition (GI50) is below 50 nM.

With `C[C@@H]1[C@@H](CS(C)(=O)=O)CN1c1cc(Nc2cc(N3OCC[C@@H]3c3cccc(F)c3F)ncn2)cc(-c2cnn(C)c2)c1N1CCOCC1` [Example 203, 6-((R)-3-(2,3-difluorophenyl)isoxazolidin-2-yl)-N-(3-(1-methyl-1H-pyrazol-4-yl)-5-((2R,3S)-2-methyl-3-((methylsulfonyl)methyl)azetidin-1-yl)-4-morpholinophenyl)pyrimidin-4-amine], under setting [1], the GI50 is below 50 nM.

As for `C=CCN1CCN(C2CCN(c3ccc(Nc4cc(N5OCC[C@@H]5c5cccc(F)c5F)ncn4)c(OC)c3)CC2)CC1` [Example 206, (R)—N-(4-(4-(4-allylpiperazin-1-yl)piperidin-1-yl)-2-methoxyphenyl)-6-(3-(2,3-difluorophenyl)isoxazolidin-2-yl)pyrimidin-4-amine], the 50% growth inhibitory concentration (GI50) under setting [1] was below 50 nM.

Turning to `CCN1CCN(C2CCN(c3ccc(Nc4cc(N5OCC[C@@H]5c5cccc(F)c5F)ncn4)c(OC)c3)CC2)CC1` [Example 207, (R)-6-(3-(2,3-difluorophenyl)isoxazolidin-2-yl)-N-(4-(4-(4-ethylpiperazin-1-yl)piperidin-1-yl)-2-methoxyphenyl)pyrimidin-4-amine], the GI50 under setting [1] is below 50 nM.

With `COc1cc(N2CCC(N3CCN(C4CCC4)CC3)CC2)ccc1Nc1cc(N2OCC[C@@H]2c2cccc(F)c2F)ncn1` [Example 208, (R)—N-(4-(4-(4-cyclobutylpiperazin-1-yl)piperidin-1-yl)-2-methoxyphenyl)-6-(3-(2,3-difluorophenyl)isoxazolidin-2-yl)pyrimidin-4-amine], under setting [1], the 50% growth inhibitory concentration (GI50) was below 50 nM.

As to `COc1cc(N2CCC(N3CCN(C4COC4)CC3)CC2)ccc1Nc1cc(N2OCC[C@@H]2c2cccc(F)c2F)ncn1` [Example 209, (R)-6-(3-(2,3-difluorophenyl)isoxazolidin-2-yl)-N-(2-methoxy-4-(4-(4-(oxetan-3-yl)piperazin-1-yl)piperidin-1-yl)phenyl)pyrimidin-4-amine], the 50% growth inhibitory concentration (GI50) under setting [1] was below 50 nM.

For the compound `COc1cc(N2CCC(N3CCN(CC4CC4)CC3)CC2)ccc1Nc1cc(N2OCC[C@@H]2c2cccc(F)c2F)ncn1` [Example 210, (R)—N-(4-(4-(4-(cyclopropylmethyl)piperazin-1-yl)piperidin-1-yl)-2-methoxyphenyl)-6-(3-(2,3-difluorophenyl)isoxazolidin-2-yl)pyrimidin-4-amine], the GI50 under setting [1] is below 50 nM.

Take `COc1cc(N2CCC(N3CC4(CN(C)C4)C3)CC2)ccc1Nc1cc(N2OCC[C@@H]2c2cccc(F)c2F)ncn1` [Example 211, (R)-6-(3-(2,3-difluorophenyl)isoxazolidin-2-yl)-N-(2-methoxy-4-(4-(6-methyl-2,6-diazaspiro[3.3]heptan-2-yl)piperidin-1-yl)phenyl)pyrimidin-4-amine]: under setting [1], the 50% growth inhibitory concentration (GI50) is below 50 nM.

Turning to `COc1cc(N2CCC(N3CC[C@@H](N(C)C)C3)CC2)ccc1Nc1cc(N2OCC[C@@H]2c2cccc(F)c2F)ncn1` [Example 212, 6-((R)-3-(2,3-difluorophenyl)isoxazolidin-2-yl)-N-(4-(4-((R)-3-(dimethylamino)pyrrolidin-1-yl)piperidin-1-yl)-2-methoxyphenyl)pyrimidin-4-amine], under setting [1], the concentration for 50% growth inhibition (GI50) is below 50 nM.

Consider `COc1cc(N2CCC(N3CCN(C)[C@H](C)C3)CC2)ccc1Nc1cc(N2OCC[C@@H]2c2cccc(F)c2F)ncn1` [Example 213, 6-((R)-3-(2,3-difluorophenyl)isoxazolidin-2-yl)-N-(4-(4-((R)-3,4-dimethylpiperazin-1-yl)piperidin-1-yl)-2-methoxyphenyl)pyrimidin-4-amine], for which the concentration for 50% growth inhibition (GI50) under setting [1] is below 50 nM.

Turning to `COc1cc(N2CCC(N3CCN(C)[C@@H](C)C3)CC2)ccc1Nc1cc(N2OCC[C@@H]2c2cccc(F)c2F)ncn1` [Example 214, 6-((R)-3-(2,3-difluorophenyl)isoxazolidin-2-yl)-N-(4-(4-((S)-3,4-dimethylpiperazin-1-yl)piperidin-1-yl)-2-methoxyphenyl)pyrimidin-4-amine], the GI50 under setting [1] was below 50 nM.

For the compound `CCN1[C@H](C)CN(C2CCN(c3ccc(Nc4cc(N5OCC[C@@H]5c5cccc(F)c5F)ncn4)c(OC)c3)CC2)C[C@@H]1C` [Example 215, 6-((R)-3-(2,3-difluorophenyl)isoxazolidin-2-yl)-N-(4-(4-((3S,5R)-4-ethyl-3,5-dimethylpiperazin-1-yl)piperidin-1-yl)-2-methoxyphenyl)pyrimidin-4-amine], the GI50 under setting [1] is below 50 nM.

On to `COc1cc(N2CCC(N3CCN(C)C[C@@H]3C)CC2)ccc1Nc1cc(N2OCC[C@@H]2c2cccc(F)c2F)ncn1` [Example 216, 6-((R)-3-(2,3-difluorophenyl)isoxazolidin-2-yl)-N-(4-(4-((S)-2,4-dimethylpiperazin-1-yl)piperidin-1-yl)-2-methoxyphenyl)pyrimidin-4-amine], for which, under setting [1], the GI50 was below 50 nM.

Take `COc1cc(N2CCC(N3CCN(C)C[C@H]3C)CC2)ccc1Nc1cc(N2OCC[C@@H]2c2cccc(F)c2F)ncn1` [Example 217, 6-((R)-3-(2,3-difluorophenyl)isoxazolidin-2-yl)-N-(4-(4-((R)-2,4-dimethylpiperazin-1-yl)piperidin-1-yl)-2-methoxyphenyl)pyrimidin-4-amine]: the GI50 under setting [1] is below 50 nM.

Consider `COc1cc(N2CC(N3CCN(C)CC3)C2)ccc1Nc1cc(N2OCC[C@@H]2c2cccc(F)c2F)ncn1` [Example 218, (R)-6-(3-(2,3-difluorophenyl)isoxazolidin-2-yl)-N-(2-methoxy-4-(3-(4-methylpiperazin-1-yl)azetidin-1-yl)phenyl)pyrimidin-4-amine], for which, under setting [1], the 50% growth inhibitory concentration (GI50) is below 50 nM.

Regarding `CCN1C2CC1CN(C1CCN(c3ccc(Nc4cc(N5OCC[C@@H]5c5cccc(F)c5F)ncn4)c(OC)c3)CC1)C2` [Example 219, 6-((R)-3-(2,3-difluorophenyl)isoxazolidin-2-yl)-N-(4-(4-(6-ethyl-3,6-diazabicyclo[3.1.1]heptan-3-yl)piperidin-1-yl)-2-methoxyphenyl)pyrimidin-4-amine], under setting [1], the concentration for 50% growth inhibition (GI50) is below 50 nM.

Consider `CCN1CC2CC(C1)N2C1CCN(c2ccc(Nc3cc(N4OCC[C@@H]4c4cccc(F)c4F)ncn3)c(OC)c2)CC1` [Example 220, 6-((R)-3-(2,3-difluorophenyl)isoxazolidin-2-yl)-N-(4-(4-(3-ethyl-3,6-diazabicyclo[3.1.1]heptan-6-yl)piperidin-1-yl)-2-methoxyphenyl)pyrimidin-4-amine], for which the concentration for 50% growth inhibition (GI50) under setting [1] is below 50 nM.

Turning to `COc1cc(N2CCC(N3CCCN(C)CC3)CC2)ccc1Nc1cc(N2OCC[C@@H]2c2cccc(F)c2F)ncn1` [Example 221], under “72 hours of compound treatment”, the concentration for 50% growth inhibition (GI50) was below 50 nM.

`COc1cc(N2CCC(N3CCN(C(C)C)CC3)CC2)ccc1Nc1cc(N2OCC[C@@H]2c2cccc(F)c2F)ncn1` [Example 222, (R)-6-(3-(2,3-difluorophenyl)isoxazolidin-2-yl)-N-(4-(4-(4-isopropylpiperazin-1-yl)piperidin-1-yl)-2-methoxyphenyl)pyrimidin-4-amine]: the 50% growth inhibitory concentration (GI50) under setting [1] is below 50 nM.

Regarding `COc1cc(N2CCC(N3CCN(C)C(=O)C3)CC2)ccc1Nc1cc(N2OCC[C@@H]2c2cccc(F)c2F)ncn1` [Example 224, (R)-4-(1-(4-((6-(3-(2,3-difluorophenyl)isoxazolidin-2-yl)pyrimidin-4-yl)amino)-3-methoxyphenyl)piperidin-4-yl)-1-methylpiperazin-2-one], the GI50 under setting [1] is below 50 nM.

As to `CN1CCN(c2ccc(Nc3cc(N4Oc5ccccc5C4c4ccccc4)ncn3)cc2)CC1` (stereo not drawn) [Example 229, N-(4-(4-methylpiperazin-1-yl)phenyl)-6-(3-phenylbenzo[d]isoxazol-2(3H)-yl)pyrimidin-4-amine], the GI50 under setting [1] is 50 to 500 nM.

`COc1cc(N2CCC(N3CCN(C)CC3)CC2)ccc1Nc1cc(N2Oc3ccccc3C2c2ccccc2)ncn1` (stereo not drawn) [Example 230, N-(2-methoxy-4-(4-(4-methylpiperazin-1-yl)piperidin-1-yl)phenyl)-6-(3-phenylbenzo[d]isoxazol-2 (3H)-yl)pyrimidin-4-amine]: the GI50 under setting [1] lay within 50 to 500 nM.
